{
  "source": "patent US8349309B2",
  "about": "“Polymeric coupling agents and pharmaceutically-active polymers made therefrom” (Interface Biologics Inc., priority 2004, dated 2013)",
  "tested_on": "Pseudomonas aeruginosa",
  "experiment": "Macro-dilution minimum inhibitory concentration (MIC) assay",
  "assay_type": "cell-based",
  "experimental": "Minimum inhibitory concentration (MIC) assays were used to evaluate the antimicrobial activity of incubating solutions obtained from drug polymer biodegradation studies against P. aeruginosa. Turbidity of each culture was recorded to evaluate the inhibitory properties of degradation solution of drug polymers.\nThe same NF polymer incubation solutions assayed via HPLC were also evaluated for antimicrobial activity using a biological assay. A macro-dilution minimum inhibitory concentration (MIC) assay was employed to determine the concentration of antimicrobial (norfloxacin) that would inhibit the growth of a pathogen often associated with device-related infections, Pseudomonas aeruginosa. […] Incubation solutions from both enzyme and buffer control treatment of NF polymer were used in a biological assay matrix that was designed to estimate the concentration of norfloxacin as a function of incubation time and treatment.",
  "data": [
    {"substance": "1-ethyl-6-fluoro-1,4-dihydro-4-oxo-7-piperazine-quinoline-3-carboxylic acid [norfloxacin]", "values": [
      {"measurement": "MIC", "result": 0.8, "unit": "mu g/mL"}
    ]}
  ]
}
